Patent publication EP0275207A2, “Pharmaceutical and veterinary compositions” (priority 1987, dated 1988)

Experiments:
Trichophyton rubrum = assay: 7 day growth test in phosphate buffered saline solution (ED 50 and ED 90); format: cell-based; settings: for EDso and ED90 results against T. Rubrum: compared to those obtained using bis THP phosphite and THP sulphate; for Mg. growth (% of control) / Mg. growth dry weight / ED50 / ED90: 7 day test; for ED50 / ED90: ppm (Active Compound)
Source text: The activity of 50% aqueous bis THP phosphite, 50% aqueous mono THP phosphite and 80% aqueous THP sulphate against Trichophyton rubrum were compared in a 7 day test in phosphate buffered saline solution to determine ED 50 and ED 90 values.

fungi = assay: Time-kill test (surviving organisms by plate count) in phosphate buffered saline, yeast and fungal strains; format: cell-based; settings: after 24 hours
Procedure: The following yeast and fungal strains were used in the tests: • Candida albicans ATCC 10231 • Candida tropicalis NCPF 3111 • Absidia corymbifera NCPF 2001 • Sporotrichum schenkii NCPF 3182 • Trichophyton rubrum NCPF 197 • Trichophyton mentagrophytes NCPF 351 • Microsporum Canis NCPF 351 • Penicillium funicolosum CMI 114933 • Aureobasidium pullulans CMI 45533
Inocula for the two yeast (Candida) strains wre prepared from cultures on Sabouraud dextrose agar (SDA Oxide CM 141) incubated at 37°C for 48 hours. Surface growth of the organisms was suspended in sterile physiological saline and standardised by plate counts to contain approximatedly 10^6 cfu/ml. […]
(§1) The test solutions as described in (5) above were prepared in 50 ml volumes and the test solutions plus a 100 ml volume of PBS (as control) were inoculated with appropriate volumes (0.5 to 1 ml) of the inocula prepared as described in (2) above, shaken to evenly distribute the inoculum and held at room temperature. Immediatedly after inoculation (time 0) and then at pre-determined times 0.1 ml aliquots were removed from the test and control solutions for counting. […]
(§2) Developing colonies were then counted and by reference to the appropriate dilution ratios the numbers of surviving organisms at each compound concentration/time point were calculated.

protozoal infection = assay: Treatment of fish pond with an infected Koi Carp; format: in vivo; settings: 100 ppm dosed to the pond, concentration of 27 ppm in the pond water
Procedure: 100 ppm of 75% aqueous THP sulphate was dosed to the pond via the oxygenating venturi to provide a concentration of 27 ppm in the pond water.

bacteria = assay: Time-kill test (surviving organisms by plate count) in phosphate buffered saline, bacterial strains; format: cell-based; settings: within 2 to 6 hours of exposure
Procedure: The following bacterial strains were used in the tests: • Streptococcus pyogenes NCTC 8198 • Streptococcus faecalis ATCC 19433 • Sarcina lutea ATCC 9341 • Proteus mirabilis NCTC 8559 • Proteus vulgaris NCTB 4175 • Klebsiella pneumoniae NCTC 10341 • Salmonella typhimurium NCTB 10258 • Salmonella enteritidis NCTC 6676 • Shigella boydii NCTC 9328 • Bacillus subtilus ATCC 6633 • Bacillus cereus ATCC 11778
Inocula for the bacterial strains were prepared from cultures on Tryptone soy agar (TSA, Oxoid CM 131) incubated at 37° C for 24 hours. […]
as §1, §2

Naegleria = assay: In vitro kill of protozoon; format: cell-based

**Q.** Which “EDso and ED90 results against T. Rubrum” value (Trichophyton rubrum) does the source give for `OC[P+](CO)(CO)CO` [THP bromide] here?
**A.** substantially similar

**Q.** `OC[P+](CO)(CO)CO.[Cl-]` [THP chloride, tetrakis (hydroxymethyl) phosphonium chloride] was tested. Which “EDso and ED90 results against T. Rubrum” value (Trichophyton rubrum) did it give?
**A.** substantially similar

**Q.** THP acetate was tested. Which “EDso and ED90 results against T. Rubrum” value (Trichophyton rubrum) did it give?
**A.** substantially similar

**Q.** How did the “EDso and ED90 results against T. Rubrum” value (Trichophyton rubrum) turn out when THP borate was run?
**A.** substantially similar

**Q.** How did the “EDso and ED90 results against T. Rubrum” value (Trichophyton rubrum) turn out when THP citrate was run?
**A.** substantially similar

**Q.** How did the “EDso and ED90 results against T. Rubrum” value (Trichophyton rubrum) turn out when THP fluoride was run?
**A.** substantially similar

**Q.** For THP lactate, which “EDso and ED90 results against T. Rubrum” value (Trichophyton rubrum) is on record?
**A.** substantially similar

**Q.** THP tartrate was tested. Which “EDso and ED90 results against T. Rubrum” value (Trichophyton rubrum) did it give?
**A.** substantially similar

**Q.** bis THP phosphate was tested. Which “EDso and ED90 results against T. Rubrum” value (Trichophyton rubrum) did it give?
**A.** substantially similar

**Q.** What does the source list for “bis THP phosphite [50% bis THP phosphite]”?
**A.** Mg. growth (% of control) (Trichophyton rubrum; 5 ppm (Active Compound)): (82) % of control; Mg. growth dry weight (Trichophyton rubrum; 5 ppm (Active Compound)): 8.7 Mg.; Mg. growth (% of control) (Trichophyton rubrum; 15 ppm (Active Compound)): (20) % of control; Mg. growth dry weight (Trichophyton rubrum; 15 ppm (Active Compound)): 2.1 Mg.; Mg. growth (% of control) (Trichophyton rubrum; 50 ppm (Active Compound)): (0) % of control; Mg. growth dry weight (Trichophyton rubrum; 50 ppm (Active Compound)): 0 Mg.; Mg. growth (% of control) (Trichophyton rubrum; 150 ppm (Active Compound)): (0) % of control; Mg. growth dry weight (Trichophyton rubrum; 150 ppm (Active Compound)): 0 Mg.; Mg. growth (% of control) (Trichophyton rubrum; 500 ppm (Active Compound)): (0) % of control; Mg. growth dry weight (Trichophyton rubrum; 500 ppm (Active Compound)): 0 Mg.; ED50 (Trichophyton rubrum): 10 ppm; ED90 (Trichophyton rubrum): 25 ppm

**Q.** How did the “Mg. growth (% of control)” value (Trichophyton rubrum; 5 ppm (Active Compound)) turn out when mono THP phosphite [50% THP phosphite] was run?
**A.** (131) % of control

**Q.** And the “Mg. growth dry weight” value (Trichophyton rubrum; 5 ppm (Active Compound))?
**A.** 9.3 Mg.

**Q.** And the “Mg. growth (% of control)” value (Trichophyton rubrum; 15 ppm (Active Compound))?
**A.** (39) % of control

**Q.** And the “Mg. growth dry weight” value (Trichophyton rubrum; 15 ppm (Active Compound))?
**A.** 2.8 Mg.

**Q.** And the “Mg. growth (% of control)” value (Trichophyton rubrum; 50 ppm (Active Compound))?
**A.** (44) % of control

**Q.** And the “Mg. growth dry weight” value (Trichophyton rubrum; 50 ppm (Active Compound))?
**A.** 3.1 Mg.

**Q.** What about the “Mg. growth (% of control)” value (Trichophyton rubrum; 150 ppm (Active Compound)) of the same compound?
**A.** (32) % of control

**Q.** And the “Mg. growth dry weight” value (Trichophyton rubrum; 150 ppm (Active Compound))?
**A.** 2.3 Mg.

**Q.** What about the “Mg. growth (% of control)” value (Trichophyton rubrum; 500 ppm (Active Compound)) of the same compound?
**A.** (23) % of control

**Q.** And the “Mg. growth dry weight” value (Trichophyton rubrum; 500 ppm (Active Compound))?
**A.** 1.6 Mg.

**Q.** And the ED50 (Trichophyton rubrum)?
**A.** 11 ppm

**Q.** And the ED90 (Trichophyton rubrum)?
**A.** >500 ppm

**Q.** Which results are given for “tetrakis(hydroxymethyl) phosphonium sulphate”?
**A.** concentration giving a high degree of lethal activity to the fungi (fungi): 100-150 ppm; infection of the other fish (protozoal infection): none of the other fish became infected; outcome for the infected fish (protozoal infection): recovered fully; tolerability in fish (feeding, distress) (protozoal infection): no signs of distress; concentration giving a high degree of lethal activity to bacteria (bacteria): at least 20 ppm

**Q.** “tetrakis(hydroxymethyl) phosphonium sulphate [80% THP Sulphate]” was tested. Which “Mg. growth (% of control)” value (Trichophyton rubrum; 8 ppm (Active Compound)) did it give?
**A.** (92) % of control

**Q.** And the “Mg. growth dry weight” value (Trichophyton rubrum; 8 ppm (Active Compound))?
**A.** 7.3 Mg.

**Q.** What about the “Mg. growth (% of control)” value (Trichophyton rubrum; 24 ppm (Active Compound)) of the same compound?
**A.** (0) % of control

**Q.** What about the “Mg. growth dry weight” value (Trichophyton rubrum; 24 ppm (Active Compound)) of the same compound?
**A.** 0 Mg.

**Q.** And the “Mg. growth (% of control)” value (Trichophyton rubrum; 80 ppm (Active Compound))?
**A.** (0) % of control

**Q.** What about the “Mg. growth dry weight” value (Trichophyton rubrum; 80 ppm (Active Compound)) of the same compound?
**A.** 0 Mg.

**Q.** And the “Mg. growth (% of control)” value (Trichophyton rubrum; 240 ppm (Active Compound))?
**A.** (0) % of control

**Q.** And the “Mg. growth dry weight” value (Trichophyton rubrum; 240 ppm (Active Compound))?
**A.** 0 Mg.

**Q.** And the “Mg. growth (% of control)” value (Trichophyton rubrum; 800 ppm (Active Compound))?
**A.** (0) % of control

**Q.** And the “Mg. growth dry weight” value (Trichophyton rubrum; 800 ppm (Active Compound))?
**A.** 0 Mg.

**Q.** What about the ED50 (Trichophyton rubrum) of the same compound?
**A.** 14 ppm

**Q.** What about the ED90 (Trichophyton rubrum) of the same compound?
**A.** 20 ppm

**Q.** For “tetrakis(hydroxymethyl) phosphonium sulphate [THPS]”, which “concentration giving a complete in vitro kill of Naegleria” value (Naegleria) is on record?
**A.** 15 ppm
